Measurements as given in ChEMBL document CHEMBL1146624, “Synthesis and evaluation of 4-anilino-6,7-dialkoxy-3-quinolinecarbonitriles as inhibitors of kinases of the Ras-MAPK signaling cascade” (Bioorg Med Chem Lett, 2003).
pIC50: −log10 of the molar value.

Tests used:
[1] = tested on: LoVo; test: cells; settings: Homo sapiens
[2] = tested on: Caco-2; test: cells; settings: Homo sapiens
[3] = molecular target: T1, Dual specificity mitogen-activated protein kinase kinase 1 (Homo sapiens, UniProt Q02750)
T1 sequence (Q02750 whole entry): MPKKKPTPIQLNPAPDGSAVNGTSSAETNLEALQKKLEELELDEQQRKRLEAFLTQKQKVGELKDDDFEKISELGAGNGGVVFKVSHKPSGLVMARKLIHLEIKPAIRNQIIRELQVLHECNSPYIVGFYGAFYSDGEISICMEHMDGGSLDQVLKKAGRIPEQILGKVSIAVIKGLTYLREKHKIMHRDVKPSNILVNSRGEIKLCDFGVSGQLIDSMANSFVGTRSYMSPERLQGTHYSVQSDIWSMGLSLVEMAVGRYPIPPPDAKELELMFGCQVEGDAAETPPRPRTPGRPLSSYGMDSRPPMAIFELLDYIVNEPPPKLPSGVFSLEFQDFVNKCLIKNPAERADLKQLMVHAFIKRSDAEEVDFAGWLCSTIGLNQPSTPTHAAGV

[4] = tested on: LoVo; test: Inhibition of tyrosine phosphorylation in LoVo cells; assay type: functional, cell-based; settings: Homo sapiens
[5] = molecular target: Serine/threonine-protein kinase AKT (Homo sapiens, UniProt P31751+Q9Y243+P31749); test: Inhibition of Akt phosphorylation in LoVo cells; assay type: functional, cell-based
[6] = molecular target: T1, Dual specificity mitogen-activated protein kinase kinase 1; test: Inhibition of MEK1 phosphorylation in LoVo cells; assay type: functional, cell-based
[7] = molecular target: Epidermal growth factor receptor (Homo sapiens, UniProt P00533)
Epidermal growth factor receptor, sequence (P00533 whole entry): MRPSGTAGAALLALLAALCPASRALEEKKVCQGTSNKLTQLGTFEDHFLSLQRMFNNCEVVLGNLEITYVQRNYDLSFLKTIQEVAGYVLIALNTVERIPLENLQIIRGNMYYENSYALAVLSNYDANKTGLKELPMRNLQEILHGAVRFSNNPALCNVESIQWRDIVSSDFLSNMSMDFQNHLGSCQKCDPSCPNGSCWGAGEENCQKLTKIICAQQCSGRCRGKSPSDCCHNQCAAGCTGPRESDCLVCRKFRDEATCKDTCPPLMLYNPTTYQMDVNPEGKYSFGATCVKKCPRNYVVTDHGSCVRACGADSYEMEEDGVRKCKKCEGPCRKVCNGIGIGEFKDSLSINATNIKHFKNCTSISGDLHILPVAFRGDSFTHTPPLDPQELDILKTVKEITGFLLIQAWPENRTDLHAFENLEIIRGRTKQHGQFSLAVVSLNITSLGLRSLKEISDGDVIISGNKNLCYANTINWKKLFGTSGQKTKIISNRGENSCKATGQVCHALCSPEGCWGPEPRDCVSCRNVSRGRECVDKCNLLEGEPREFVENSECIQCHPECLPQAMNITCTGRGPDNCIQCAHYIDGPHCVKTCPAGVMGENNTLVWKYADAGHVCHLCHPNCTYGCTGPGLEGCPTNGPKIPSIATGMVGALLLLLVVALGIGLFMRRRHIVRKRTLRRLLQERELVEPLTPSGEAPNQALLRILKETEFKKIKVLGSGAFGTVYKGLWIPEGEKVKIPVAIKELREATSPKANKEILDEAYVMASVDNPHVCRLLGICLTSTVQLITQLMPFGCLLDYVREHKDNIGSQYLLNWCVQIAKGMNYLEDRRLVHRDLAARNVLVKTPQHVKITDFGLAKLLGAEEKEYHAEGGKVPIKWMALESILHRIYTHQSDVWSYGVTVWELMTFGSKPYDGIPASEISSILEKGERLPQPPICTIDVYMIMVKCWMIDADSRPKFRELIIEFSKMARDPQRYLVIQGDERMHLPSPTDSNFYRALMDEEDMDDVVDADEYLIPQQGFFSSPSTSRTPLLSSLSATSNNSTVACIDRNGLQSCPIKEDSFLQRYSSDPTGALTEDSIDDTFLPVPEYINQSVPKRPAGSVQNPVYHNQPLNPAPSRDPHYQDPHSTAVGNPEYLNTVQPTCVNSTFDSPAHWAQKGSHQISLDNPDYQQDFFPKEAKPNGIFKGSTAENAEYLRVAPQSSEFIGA

Compound | pIC50 [1] | pIC50 [2] | pIC50 [3] | pIC50 [4] | IC50 [5] [nM] | pIC50 [6] | pIC50 [7]
O=C(NOCC1CC1)c1ccc(F)c(F)c1Nc1ccc(I)cc1Cl [CI-1040] | 6.88 | < 6.00 | – | – | – | – | –
COc1cc2c(Nc3ccc(Cc4nccn4C)c(Cl)c3)c(C#N)cnc2cc1OCCCN1CCOCC1 | 6.42 | 5.26 | 6.67 | – | – | – | –
COc1cc2c(Nc3ccc(Sc4nccn4C)c(Cl)c3)c(C#N)cnc2cc1OCCCN1CCOCC1 | 8.30 | < 6.00 | 8.70 | < 6.00 | > 1000 | 8.10 | < 6.00
COc1cc2c(Nc3ccc(Sc4nccn4C)c(C)c3)c(C#N)cnc2cc1OCCCN1CCOCC1 | 7.44 | 5.49 | – | – | – | – | –
COc1cc2c(Nc3ccc(Oc4ccccc4)cc3)c(C#N)cnc2cc1OCCCN1CCOCC1 | 6.40 | 5.26 | 8.40 | < 6.00 | > 1000 | < 6.00 | < 6.00
COc1cc2c(Nc3ccc(Sc4nccs4)c(Cl)c3)c(C#N)cnc2cc1OCCCN1CCOCC1 | 7.25 | 5.57 | 8.05 | – | – | – | –
COc1cc2c(Nc3ccc(Sc4nccn4C)c(Cl)c3)c(C#N)cnc2cc1OCCCN1CC[S+]([O-])CC1 | 7.44 | < 6.00 | 8.70 | – | – | – | –
COc1cc2c(Nc3ccc(Sc4ncc(C)n4C)c(Cl)c3)c(C#N)cnc2cc1OCCCN1CCOCC1 | 6.49 | < 6.00 | 9.00 | – | – | – | –
CCOc1cc2ncc(C#N)c(Nc3ccc(Sc4nccn4C)c(Cl)c3)c2cc1OCC | 8.15 | < 6.00 | 8.00 | – | – | – | –
COc1cc2c(Nc3ccc(Sc4nc(C)c(C)n4C)c(Cl)c3)c(C#N)cnc2cc1OCCCN1CCOCC1 | 6.47 | 6.05 | 8.70 | – | – | – | –
COc1cc2c(Nc3ccc(Sc4nccn4C)c(Br)c3)c(C#N)cnc2cc1OCCCN1CCOCC1 | 8.30 | 5.28 | 8.70 | – | – | – | –
COc1cc2c(Nc3ccc(Sc4nccn4C)c(Cl)c3)c(C#N)cnc2cc1OCCCN1CCCC1 | 8.00 | < 6.00 | 8.40 | – | – | – | –
COc1cc2c(Nc3ccc(Sc4ccccn4)c(Cl)c3)c(C#N)cnc2cc1OCCCN1CCOCC1 | 6.70 | < 6.00 | 8.10 | – | – | – | –
CCN1CCN(CCCOc2cc3ncc(C#N)c(Nc4ccc(Sc5nccn5C)c(Cl)c4)c3cc2OC)CC1 | – | < 6.00 | – | – | – | – | –
COc1cc2c(Nc3ccc(Sc4nccn4C)cc3)c(C#N)cnc2cc1OCCCN1CCOCC1 | 7.37 | 5.33 | – | – | – | – | –
